“Also recorded” adds a separate entry of the source.
How the values were obtained:
[1] = test system: human mesenchymal stem cells (hMSC); experiment: hMSC proliferation, viable cell count (GUAVA Viacount) in maintenance medium; format: cell-based; conditions: normal growth medium; data not shown
Procedure: (§1) Human mesenchymal stem cells (hMSCs) (Cambrex, USA) were plated in maintenance medium consisting of DMEM (1000 mg/L glucose), 10% fetal calf serum (FCS), 2 mM L-glutamine and 100 U/ml penicillin-streptomycin sulfate at 37° C. in a humidified atmosphere with 5% CO2. To assess their proliferation, assays were performed to determine cell number utilizing the GUAVA PCA-96 System (GUAVA Technologies) as per the manufacturer's instructions. Briefly, cells were seeded at 3,000 cells/cm^2 in 48-well plates and allowed to adhere overnight. […] Proliferation of cells was assessed by Guava viacount on 1, 3, 5 and 7 day to determine the total viable cells. Cells were washed in PBS, pelleted with 0.125% trypsin, the trypsin neutralized, the pellet resuspended in 400 μl of PBS with the addition of 4 μl of Flex reagent, incubated for 10 min and cell number and viability determined utilizing the GUAVA Viacount software.
Human mesenchymal stem cells (hMSCs) were plated in maintenance medium consisting of DMEM (1000 mg/L glucose), 10% fetal calf serum (FCS), 2 mM L-glutamine and 100 U/ml penicillin-streptomycin sulfate at 37° C. in a humidified atmosphere with 5% CO2. To assess their proliferation, assays were performed to determine cell number utilizing the GUAVA PCA-96 System (Millipore, USA) as per the manufacturer's instructions.
Briefly, cells were seeded at 3,000 cells/cm^2 in 48-well plates and allowed to adhere overnight. […] Proliferation of cells was assessed on days 1, 3, 5 and 7 to determine total viable cells. Cells were washed in PBS, pelleted with 0.125% trypsin, the trypsin neutralized, the pellet resuspended in 400 μl of PBS with the addition of 4 μl of Flex reagent, incubated for 10 min and cell number and viability determined utilizing the GUAVA Viacount software.

[2] = test system: human mesenchymal stem cells (hMSC); experiment: hMSC proliferation, viable cell count in osteogenic medium; format: cell-based; conditions: data not shown
Procedure: (§2) FIG. 5. Effect of male and female liver HS on the growth of hMSC in maintenance and osteogenic medium. Cells were cultured for 7 days in normal maintenance medium in the presence of different concentrations (12.5 μg/ml or 1.25 μg/ml or 625 ng/ml or 312 ng/ml or 156 ng/ml) of male liver HS (A), and female liver HS (B). Cells were cultured for 7 days in osteogenic medium in the presence of different concentrations (12.5 μg/ml or 625 ng/ml or 312 ng/ml) of male liver HS (C), and female liver HS (D). Viable cell counts were determined at day 1, 3, 5 and 7. (E) The importance of FGFR signaling for HS activity was investigated by supplementing serum starved sub confluence cultures with male or female. HS (2.5 μg/ml) or FGF2 (2.5 ng/ml) in the presence or absence of an FGFR1 inhibitor (SU5402 at 20 μM) for 60 min. Total protein was extracted for Western blotting and first probed for activated ERK1/2 expression (pERK1/2). Membranes were then striped and reprobed with anti ERK1/2 antibody. (F) The amount of pERK1/2 protein was determined by densitometry. […]
as §1, with “CO2.” for “CO2. To assess their proliferation, assays were performed to determine cell number utilizing the GUAVA PCA-96 System (GUAVA Technologies) as per the manufacturer's instructions. Briefly, cells were seeded at 3,000 cells/cm^2 in 48-well plates and allowed to adhere overnight.”
To assess the possibility of structural differences identified between the male and female liver HS to modulate hMSC proliferation, hMSCs were treated with varying concentration of HS and viable cell number was counted over a 7-day culture period in normal maintenance or differentiation (osteogenic) medium.

ERK1/2 = ERK1/2 phosphorylation in serum-starved hMSC (Western blot); format: cell-based, human; conditions: SU5402 at 20 μM, 60 min, with male or female HS 2.5 μg/ml
Procedure: as §2
MSCs were seeded in designated media at 5,000/cm^2 in six-well plates and cultured until subconfluent. […] Protein content was determined using a Protein Assay Kit (Bio-Rad) following the manufacturer's instructions. […]

hMSCs = experiment: hMSC proliferation with or without FGFR1 inhibitor SU5402, 5 days; format: cell-based, human
[3] = test system: Bovine aortic smooth muscle cells (BASMC); conditions: literature (Yang et al); cited from earlier work

Molecule	hMSC proliferation compared to 10% serum [1]	effect on hMSC proliferation [2]	effect on BASMC mineralization [3]	further results
2-de-O-sulfated heparin	less effect on proliferation	no effect; also recorded: neither de-N-sulfated, 2-de-O-sulfated nor 6-de-O-sulfated heparin had any effect	–	–
6-de-O-sulfated heparin	less effect on proliferation	no effect; also recorded: neither de-N-sulfated, 2-de-O-sulfated nor 6-de-O-sulfated heparin had any effect	–	–
Cc1c[nH]c(/C=C2\C(=O)Nc3ccccc32)c1CCC(=O)O [SU5402]	–	–	–	effect on liver HS-stimulated ERK1/2 phosphorylation (ERK1/2): blocked; effect on basal growth of hMSCs (hMSCs; SU5402 at 20 μM): inhibitory effect; effect on HS and FGF2 induced proliferation (hMSCs; SU5402 at 20 μM, male HS 2.5 μg/ml or FGF2 2.5 ng/ml): preventing HS and FGF2 induced proliferation
FGF2	–	–	–	effect on hMSC proliferation (hMSCs; FGF2 2.5 ng/ml): induced proliferation
N-desulfated heparin	–	–	no inhibition; also recorded: no inhibitory activity	–
de-N-sulfated heparin	does not increase hMSC proliferation; also recorded: failed to improve hMSC proliferation	no effect; also recorded: neither de-N-sulfated, 2-de-O-sulfated nor 6-de-O-sulfated heparin had any effect	–	–
dermatan sulfate	–	–	no inhibition; also recorded: no inhibitory activity	–
heparin [highly sulfated heparin]	–	–	inhibited	–
